The NIST ThermoML archive (doi:10.1016/j.jct.2011.08.016)
Numbers after ± are expanded uncertainties.

Assay: xn = mol fraction of the nth substance listed
Conditions: Liquid, Vibrating tube method

CCCCCCCCCC [decane] + CCCCCCCC
mass density [kg/m3]
Conditions	x2 = 0.0616	x2 = 0.2801	x2 = 0.5314	x2 = 0.7736
353.12 K, 10000 kPa	–	687.61 ± 0.46	680.99 ± 0.47	673.43 ± 0.47
353.12 K, 10990 kPa	693.88 ± 0.47	688.64 ± 0.47	682.03 ± 0.47	674.52 ± 0.48
353.12 K, 12000 kPa	694.85 ± 0.47	689.64 ± 0.47	683.07 ± 0.48	675.55 ± 0.49
353.12 K, 13000 kPa	695.8 ± 0.48	690.64 ± 0.48	684.09 ± 0.49	676.59 ± 0.49
353.12 K, 14000 kPa	696.76 ± 0.48	691.6 ± 0.49	685.09 ± 0.49	677.61 ± 0.5
353.12 K, 15000 kPa	697.7 ± 0.49	692.59 ± 0.49	686.08 ± 0.5	678.66 ± 0.51
353.12 K, 16000 kPa	698.61 ± 0.5	693.55 ± 0.5	687.05 ± 0.51	679.66 ± 0.51
353.12 K, 17000 kPa	699.52 ± 0.5	694.46 ± 0.51	688 ± 0.51	680.68 ± 0.52
353.12 K, 18000 kPa	700.43 ± 0.51	695.35 ± 0.51	688.93 ± 0.52	681.63 ± 0.53
353.12 K, 19000 kPa	701.32 ± 0.51	696.27 ± 0.52	689.85 ± 0.53	682.58 ± 0.53
353.12 K, 20000 kPa	702.19 ± 0.52	697.16 ± 0.53	690.77 ± 0.53	683.51 ± 0.54
353.12 K, 21000 kPa	703.05 ± 0.53	698.02 ± 0.53	691.66 ± 0.54	684.41 ± 0.55
353.12 K, 22000 kPa	703.89 ± 0.53	698.88 ± 0.54	692.54 ± 0.55	685.32 ± 0.55
353.12 K, 23000 kPa	704.72 ± 0.54	699.72 ± 0.55	693.39 ± 0.55	686.21 ± 0.56
353.12 K, 24000 kPa	705.52 ± 0.55	700.52 ± 0.55	694.23 ± 0.56	687.06 ± 0.57
353.12 K, 25000 kPa	706.29 ± 0.55	701.34 ± 0.56	695.07 ± 0.57	687.92 ± 0.58
363.02 K, 1000 kPa	–	–	662.89 ± 0.42	–
363.02 K, 2000 kPa	–	–	664.16 ± 0.43	–
363.02 K, 3000 kPa	–	–	665.39 ± 0.43	–
363.02 K, 4000 kPa	–	–	666.61 ± 0.44	–
363.02 K, 5000 kPa	–	–	667.85 ± 0.44	–
363.02 K, 6000 kPa	–	–	669.05 ± 0.45	–
363.02 K, 7000 kPa	–	–	670.24 ± 0.45	–
363.02 K, 8000 kPa	–	–	671.39 ± 0.46	–
363.02 K, 9000 kPa	–	–	672.53 ± 0.46	–
363.02 K, 10000 kPa	–	–	673.66 ± 0.47	–
363.02 K, 10990 kPa	–	–	674.79 ± 0.48	–
363.02 K, 12000 kPa	–	–	675.87 ± 0.48	–
363.02 K, 13000 kPa	–	–	676.95 ± 0.49	–
363.02 K, 14000 kPa	–	–	678.01 ± 0.5	–
363.02 K, 15000 kPa	–	–	679.06 ± 0.5	–
363.02 K, 16000 kPa	–	–	680.09 ± 0.51	–
363.02 K, 17000 kPa	–	–	681.1 ± 0.52	–
363.02 K, 18000 kPa	–	–	682.1 ± 0.52	–
363.02 K, 19000 kPa	–	–	683.1 ± 0.53	–
363.02 K, 20000 kPa	–	–	684.05 ± 0.54	–
363.02 K, 21000 kPa	–	–	685 ± 0.54	–
363.02 K, 22000 kPa	–	–	685.91 ± 0.55	–
363.02 K, 23000 kPa	–	–	686.82 ± 0.56	–
363.02 K, 24000 kPa	–	–	687.69 ± 0.57	–
363.02 K, 25000 kPa	–	–	688.57 ± 0.57	–
363.03 K, 1000 kPa	675.72 ± 0.42	–	–	–
363.03 K, 2000 kPa	676.86 ± 0.42	–	–	–
363.03 K, 3000 kPa	678.03 ± 0.43	–	–	–
363.03 K, 4000 kPa	679.17 ± 0.43	–	–	–
363.03 K, 5000 kPa	680.28 ± 0.44	–	–	–
363.03 K, 6000 kPa	681.38 ± 0.44	–	–	–
